Measured values as given in PubChem BioAssay (NCI).
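Briefly, cells in 96-well plates were exposed to five compound concentrations for 48 h, and endpoints were estimated by linear interpolation. TGI: total growth inhibition.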

Columns and labels:
Assay in all cases: NCI anticancer screen, dose series, 48 h
HT29 colon = tested on: HT29 colon
UO-31 renal = tested on: UO-31 renal
HL-60(TB) leukemia = tested on: HL-60(TB) leukemia
NCI/ADR-RES ovarian = tested on: NCI/ADR-RES ovarian
OVCAR-5 ovarian = tested on: OVCAR-5 ovarian
MALME-3M melanoma = tested on: MALME-3M melanoma
SK-MEL-5 melanoma = tested on: SK-MEL-5 melanoma
MCF7 breast = tested on: MCF7 breast

Question: How did the TGI (HT29 colon) turn out when `CCN1CCC(O)(c2ccc(Oc3ccc(C)cc3)cc2)C(C(=O)c2ccc(Oc3ccc(C)cc3)cc2)C1` (centres undefined) was run?
Answer: 14.2 µM

Question: What about the TGI (UO-31 renal) of the same compound?
Answer: 20.6 µM

Question: What about the TGI (HL-60(TB) leukemia) of the same compound?
Answer: 3.7 µM

Question: What about the TGI (NCI/ADR-RES ovarian) of the same compound?
Answer: 28.2 µM

Question: What about the TGI (OVCAR-5 ovarian) of the same compound?
Answer: 32.1 µM

Question: And the TGI (MALME-3M melanoma)?
Answer: 29.7 µM

Question: And the TGI (SK-MEL-5 melanoma)?
Answer: 20.4 µM

Question: What about the TGI (MCF7 breast) of the same compound?
Answer: 8.41 µM

Question: For `CC1(C)CCC(=O)NC1CC(=O)CC1NC(=O)CCC1(C)C` (centres undefined), which TGI (HT29 colon) is on record?
Answer: > 100 µM

Question: What about the TGI (UO-31 renal) of the same compound?
Answer: > 100 µM

Question: And the TGI (HL-60(TB) leukemia)?
Answer: > 100 µM

Question: What about the TGI (NCI/ADR-RES ovarian) of the same compound?
Answer: > 100 µM

Question: What about the TGI (OVCAR-5 ovarian) of the same compound?
Answer: > 100 µM

Question: And the TGI (MALME-3M melanoma)?
Answer: > 100 µM

Question: What about the TGI (SK-MEL-5 melanoma) of the same compound?
Answer: > 100 µM

Question: What about the TGI (MCF7 breast) of the same compound?
Answer: > 100 µM

Question: Which results are given for `C[C@]1(O)O[C@@H]2OCC[C@@H]2C2=C1C(=O)c1ccccc1C2=O`?
Answer: TGI (HT29 colon): > 100 µM; TGI (UO-31 renal): 31.8 µM; TGI (HL-60(TB) leukemia): 33.2 µM; TGI (NCI/ADR-RES ovarian): 45.8 µM; TGI (OVCAR-5 ovarian): 32.4 µM; TGI (MALME-3M melanoma): 29.5 µM; TGI (SK-MEL-5 melanoma): 24.8 µM; TGI (MCF7 breast): 23.3 µM

Question: For `CC(C)(C)c1ccc(C(C)(C)C)c(N2C(=O)C3ON=C(c4ccc([N+](=O)[O-])cc4)C3C2=O)c1` (centres undefined), which TGI (HT29 colon) is on record?
Answer: > 25 µM

Question: And the TGI (UO-31 renal)?
Answer: > 25 µM

Question: And the TGI (HL-60(TB) leukemia)?
Answer: > 25 µM

Question: What about the TGI (NCI/ADR-RES ovarian) of the same compound?
Answer: > 25 µM

Question: And the TGI (OVCAR-5 ovarian)?
Answer: > 25 µM

Question: What about the TGI (MALME-3M melanoma) of the same compound?
Answer: > 25 µM

Question: What about the TGI (SK-MEL-5 melanoma) of the same compound?
Answer: > 25 µM

Question: What about the TGI (MCF7 breast) of the same compound?
Answer: > 25 µM

Question: Which TGI (HT29 colon) does the source give for `CC(=O)N1c2ccccc2C(C)C1c1[nH]c2ccccc2c1C` (centres undefined) here?
Answer: 57.1 µM

Question: And the TGI (UO-31 renal)?
Answer: 47.6 µM

Question: And the TGI (HL-60(TB) leukemia)?
Answer: 44.4 µM

Question: And the TGI (NCI/ADR-RES ovarian)?
Answer: > 100 µM

Question: And the TGI (OVCAR-5 ovarian)?
Answer: 34 µM

Question: What about the TGI (MALME-3M melanoma) of the same compound?
Answer: > 100 µM

Question: And the TGI (SK-MEL-5 melanoma)?
Answer: 28.3 µM

Question: What about the TGI (MCF7 breast) of the same compound?
Answer: > 100 µM

Question: How did the TGI (HT29 colon) turn out when `Cc1ccc(S(=O)(=O)N2CCNCCN(S(=O)(=O)c3ccc(C)cc3)CCN(S(=O)(=O)c3ccc(C)cc3)CC2)cc1` was run?
Answer: > 100 µM

Question: And the TGI (UO-31 renal)?
Answer: > 100 µM

Question: What about the TGI (HL-60(TB) leukemia) of the same compound?
Answer: > 100 µM

Question: And the TGI (NCI/ADR-RES ovarian)?
Answer: > 100 µM

Question: And the TGI (OVCAR-5 ovarian)?
Answer: > 100 µM

Question: And the TGI (MALME-3M melanoma)?
Answer: > 100 µM

Question: And the TGI (SK-MEL-5 melanoma)?
Answer: > 100 µM

Question: What about the TGI (MCF7 breast) of the same compound?
Answer: > 100 µM

Question: Which TGI (HT29 colon) does the source give for `C#CCn1c(=O)c(Cl)cn(/C(=C/C(=O)OCC)C(=O)OCC)c1=O` here?
Answer: 39.5 µM

Question: And the TGI (UO-31 renal)?
Answer: 10.6 µM

Question: What about the TGI (HL-60(TB) leukemia) of the same compound?
Answer: 8.21 µM

Question: And the TGI (NCI/ADR-RES ovarian)?
Answer: > 79.3 µM

Question: And the TGI (OVCAR-5 ovarian)?
Answer: 31.7 µM

Question: What about the TGI (MALME-3M melanoma) of the same compound?
Answer: 8.5 µM

Question: And the TGI (SK-MEL-5 melanoma)?
Answer: 30.6 µM

Question: And the TGI (MCF7 breast)?
Answer: 22.7 µM

Question: Which TGI (HT29 colon) does the source give for `CC(C)C1CC[C@H](C)C[C@@H]1OC(=O)C(C(=O)O[C@H]1C[C@@H](C)CCC1C(C)C)C(O)[C@@H]1OC(C)(C)O[C@H]1C1COC(C)(C)O1` (some centres undefined) here?
Answer: 32.2 µM

Question: And the TGI (UO-31 renal)?
Answer: 31.3 µM

Question: What about the TGI (HL-60(TB) leukemia) of the same compound?
Answer: 42.2 µM

Question: What about the TGI (NCI/ADR-RES ovarian) of the same compound?
Answer: 45.4 µM

Question: And the TGI (OVCAR-5 ovarian)?
Answer: 31.9 µM

Question: What about the TGI (MALME-3M melanoma) of the same compound?
Answer: 36 µM

Question: What about the TGI (SK-MEL-5 melanoma) of the same compound?
Answer: 29.2 µM

Question: And the TGI (MCF7 breast)?
Answer: 22.6 µM

Question: `CCN(CC)CCCOc1cc2c(cc1OC)C(=O)N1CCC[C@H]1C=N2` was tested. Which TGI (HT29 colon) did it give?
Answer: 39.5 µM

Question: What about the TGI (UO-31 renal) of the same compound?
Answer: > 100 µM

Question: What about the TGI (HL-60(TB) leukemia) of the same compound?
Answer: > 100 µM

Question: And the TGI (NCI/ADR-RES ovarian)?
Answer: > 100 µM

Question: What about the TGI (OVCAR-5 ovarian) of the same compound?
Answer: > 100 µM

Question: What about the TGI (MALME-3M melanoma) of the same compound?
Answer: > 100 µM

Question: And the TGI (SK-MEL-5 melanoma)?
Answer: 63.7 µM

Question: What about the TGI (MCF7 breast) of the same compound?
Answer: > 100 µM

Question: `CC(=O)NC(Cc1ccc(OP(=O)(OCc2ccc([N+](=O)[O-])o2)N(C)CCCCCl)cc1)C(=O)NC(C)c1ccc(OCC2CCCCC2)c(C(N)=O)c1` (centres undefined) was tested. Which TGI (HT29 colon) did it give?
Answer: 4.83 µM

Question: What about the TGI (UO-31 renal) of the same compound?
Answer: 45.2 µM

Question: What about the TGI (HL-60(TB) leukemia) of the same compound?
Answer: 6.83 µM

Question: And the TGI (NCI/ADR-RES ovarian)?
Answer: > 100 µM

Question: And the TGI (OVCAR-5 ovarian)?
Answer: 21.2 µM

Question: What about the TGI (MALME-3M melanoma) of the same compound?
Answer: 5.65 µM

Question: What about the TGI (SK-MEL-5 melanoma) of the same compound?
Answer: 3.08 µM

Question: What about the TGI (MCF7 breast) of the same compound?
Answer: 5.23 µM

Question: With `N#Cc1nc(CCC(c2nc(C#N)c(N)o2)N2C(=O)c3ccccc3C2=O)oc1N` (centres undefined) as the compound, how does the TGI (HT29 colon) read?
Answer: > 100 µM

Question: And the TGI (UO-31 renal)?
Answer: > 100 µM

Question: What about the TGI (HL-60(TB) leukemia) of the same compound?
Answer: > 100 µM

Question: And the TGI (NCI/ADR-RES ovarian)?
Answer: > 100 µM

Question: And the TGI (OVCAR-5 ovarian)?
Answer: > 100 µM

Question: And the TGI (MALME-3M melanoma)?
Answer: > 100 µM

Question: And the TGI (SK-MEL-5 melanoma)?
Answer: > 100 µM

Question: What about the TGI (MCF7 breast) of the same compound?
Answer: > 100 µM

Question: Which results are given for `COC(=O)c1cc(C(=CCC[C@H]2CC[C@@]3(C)C(CCC4C3CC[C@@]3(C)C4CC[C@@H]3C(C)CCCC(C)C)C2)c2cc(Cl)c(OC(=O)c3ccccc3)c(C(=O)OC)c2)cc(Cl)c1OC(=O)c1ccccc1` (some centres undefined)?
Answer: TGI (HT29 colon): > 10 µM; TGI (UO-31 renal): > 10 µM; TGI (HL-60(TB) leukemia): > 10 µM; TGI (NCI/ADR-RES ovarian): > 10 µM; TGI (OVCAR-5 ovarian): > 10 µM; TGI (MALME-3M melanoma): > 10 µM; TGI (SK-MEL-5 melanoma): > 10 µM; TGI (MCF7 breast): > 10 µM

Question: What does the source list for `c1ccc2c(c1)CC1COc3ccccc3C1O2` (centres undefined)?
Answer: TGI (HT29 colon): > 100 µM; TGI (UO-31 renal): > 100 µM; TGI (HL-60(TB) leukemia): > 100 µM; TGI (NCI/ADR-RES ovarian): > 100 µM; TGI (OVCAR-5 ovarian): > 100 µM; TGI (MALME-3M melanoma): > 100 µM; TGI (SK-MEL-5 melanoma): 37.9 µM; TGI (MCF7 breast): > 100 µM

Question: For `Cc1nc2ccccc2n1Cc1nnc(N)o1`, which TGI (HT29 colon) is on record?
Answer: > 100 µM

Question: What about the TGI (UO-31 renal) of the same compound?
Answer: > 100 µM

Question: What about the TGI (HL-60(TB) leukemia) of the same compound?
Answer: > 100 µM

Question: And the TGI (NCI/ADR-RES ovarian)?
Answer: > 100 µM

Question: And the TGI (OVCAR-5 ovarian)?
Answer: > 100 µM

Question: And the TGI (MALME-3M melanoma)?
Answer: > 100 µM

Question: What about the TGI (SK-MEL-5 melanoma) of the same compound?
Answer: > 100 µM

Question: What about the TGI (MCF7 breast) of the same compound?
Answer: > 100 µM

Question: Which results are given for `c1ccc2nc(CCC3CCCCN3)ccc2c1` (centres undefined)?
Answer: TGI (HT29 colon): > 100 µM; TGI (UO-31 renal): > 100 µM; TGI (HL-60(TB) leukemia): > 100 µM; TGI (NCI/ADR-RES ovarian): > 100 µM; TGI (OVCAR-5 ovarian): > 100 µM; TGI (MALME-3M melanoma): > 100 µM; TGI (SK-MEL-5 melanoma): > 100 µM; TGI (MCF7 breast): > 100 µM

Question: What does the source list for `COc1cc2c(cc1OCCCC(=O)Nc1cc(C(=O)NCCCN(C)C)n(C)n1)N=CC1CCCN1C2=O` (centres undefined)?
Answer: TGI (HT29 colon): 18.2 µM; TGI (UO-31 renal): 24.3 µM; TGI (HL-60(TB) leukemia): 0.24 µM; TGI (NCI/ADR-RES ovarian): > 74.4 µM; TGI (OVCAR-5 ovarian): > 26.9 µM; TGI (MALME-3M melanoma): 14.2 µM; TGI (SK-MEL-5 melanoma): 14 µM; TGI (MCF7 breast): > 80.7 µM

Question: Which results are given for `C#CC(O)/C=C/C(O)CCCC(O)CC#CC(O)C#CC(O)CCCC(O)/C=C/CCCC(=O)CCCCCCCCCCCCCCCC(O)C(O)C#CC(=O)O` (centres undefined)?
Answer: TGI (HT29 colon): > 50 µM; TGI (UO-31 renal): 22.1 µM; TGI (HL-60(TB) leukemia): 27.4 µM; TGI (NCI/ADR-RES ovarian): > 50 µM; TGI (OVCAR-5 ovarian): > 50 µM; TGI (MALME-3M melanoma): > 50 µM; TGI (SK-MEL-5 melanoma): > 50 µM; TGI (MCF7 breast): > 50 µM

Question: For `COc1cc2c(cc1OC)-c1cc3cc(OC)c(OC)cc3c(=O)n1CC2`, which TGI (HT29 colon) is on record?
Answer: > 100 µM

Question: What about the TGI (UO-31 renal) of the same compound?
Answer: 13.2 µM

Question: What about the TGI (HL-60(TB) leukemia) of the same compound?
Answer: > 100 µM

Question: What about the TGI (NCI/ADR-RES ovarian) of the same compound?
Answer: > 80.1 µM

Question: And the TGI (OVCAR-5 ovarian)?
Answer: > 100 µM

Question: What about the TGI (MALME-3M melanoma) of the same compound?
Answer: > 79.5 µM

Question: What about the TGI (SK-MEL-5 melanoma) of the same compound?
Answer: 25.9 µM

Question: What about the TGI (MCF7 breast) of the same compound?
Answer: > 100 µM
